What all share (test): agar plate paper-disc inhibition zone screening
Assay type in all cases: cell-based

The test system of test [1] is Aerobacter aerogenes. The conditions noted are these: Klebsiella aerogenes, read-out: Inhibition Zone Diameter mm (Dose mg/ml) A. Aerogenes; for zone of inhibition at 3000 µg/mL: Dose 3.0 mg/ml; for zone of inhibition at 500 µg/mL: Dose 0.5 mg/ml. The method, then:
(§1) The bacterial and yeast isolates are maintained in agar slants or in liquid media, hereby designated as inoculum media. The cultures are transferred at regular intervals in such media. (See Table for the corresponding inoculum media of each culture.) The organisms are generally transferred on to agar slants or liquid inoculum media and incubated overnight (18-20 hours): 37°C for the bacterial isolates and 28°C for the fungal cultures.
(§2) The microbial cells from the overnight agar slants are then scraped off and suspended in saline solution (0.85% NaCI). The microbial concentrations are adjusted to a light transmittancy of 20-35%, Junior Coleman Spectrophotometer (555 M). For the organisms that are maintained in liquid media, an aliquot of the culture suspension is simply diluted with saline to 20-35% light transmittancy.
(§3) The above microbial suspension serve as inocula for the assay plates. Thus, 0.16-10 ml (see Table for exact amount) are used to inoculate 100 ml of the molten-agar assay medium.
(§4) Stainless steel frames, 12.3 x 25.3 cm (ID) and glass plates, 15.3 x 31.7 cm are used to make the test trays. The frames are attached to the plates with tape at each end and the inner edges sealed with 2% agar. Twenty five ml of inoculated assay medium is spread evenly on each tray and allowed to solidify. The trays are covered, inverted, and refrigerated until used.
(§5) The compounds or samples to be tested are dissolved in suitable solvents, e.g., alcohols, dimethylsulfoxide, or N,N-dimethylformamide. The samples are generally dissolved so that the final concentration of the solvent is <10%.^* The compounds are tested at different concentrations: 3,000; 1,000; 500; 100; and 10 mcg/ml. Paper discs (12.7 mm diameter) are placed on the agar trays with forceps, then 0.08 ml of the dissolved compound is pipetted onto each disc using a 0.2 ml pipette.
(§6) The disked agar trays are incubated overnight (18-20 hours) at 37°C for the bacterial cultures and 28°C for the yeasts. The Penicillium avellaneium tray is incubated for at least […] since it is a slower- growing organism.
(§7) Active compounds show a zone of inhibition around the disc. The diameter of the zone is measured in mm. The zone diameter of active compounds ranges from a minimum of 13.5 mm to as high as 60 mm. The size of the zone diameter generally reflects the activity of the compound: the larger the zone the greater the activity.

Test [2] relates to Bacillus subtilis. The conditions noted are these: read-out: Inhibition Zone Diameter mm (Dose mg/ml) B. Subtilis; for zone of inhibition at 1000 µg/mL: Dose 1.0 mg/ml; for zone of inhibition at 3000 µg/mL: Dose 3.0 mg/ml. The method, then: as §1, §2, §3, §4, §5, §6, §7
Test [3] deals with Streptococcus faecalis. The conditions noted are these: Enterococcus faecalis, read-out: Inhibition Zone Diameter mm (Dose mg/ml) S. Faecalis; for zone of inhibition at 3000 µg/mL: Dose 3.0 mg/ml; for zone of inhibition at 1000 µg/mL: Dose 1.0 mg/ml. The method, then:
as §1, §2, §3, §4, §5, §6, §7

Test [4] has as its system Escherichia coli. The conditions noted are these: read-out: Inhibition Zone Diameter mm (Dose mg/ml) E. Coli; for zone of inhibition at 3000 µg/mL: Dose 3.0 mg/ml; for zone of inhibition at 500 µg/mL: Dose 0.5 mg/ml. The method, then:
as §1, §2, §3, §4, §5, §6, §7

In test [5] the test system is Penicillium avellaneum. The conditions noted are these: Hamigera avellanea, read-out: Inhibition Zone Diameter mm (Dose mg/ml) P. Avellaneum; for zone of inhibition at 3000 µg/mL: Dose 3.0 mg/ml. On the procedure:
The Penicillium avellaneum is grown for six days, at 28°C, on an agar medium. This is to allow sporulation of the culture. The organism is then harvested by scraping off the cells from the agar surface (mycelia and spores) and suspending them in saline solution containing 0.05% Tween 80.
The suspension is adjusted to a light transmittancy of 20%. One ml of this suspension is used to inoculate 100 ml of the molten-agar assay medium.
as §4, §5, §6, §7

In patent publication EP0103381B1, “Substituted anthra(1,9-cd)pyrazol-6(2H)-ones” (WARNER-LAMBERT COMPANY, priority 1982, dated 1984) one finds zone of inhibition data, which are given here for seven compounds.

SMILES strings stand for the structures.

For `O=C1c2c(O)ccc(O)c2-c2nn(CCNCCO)c3ccc(NCCN4CCOCC4)c1c23` [Example 61, 7,10-Dihydroxy-2-[2-[(2-hydroxyethyl)amino]ethyl]-5-[[2-(4-morpholinyl)ethyl]amino]anthra[1,9-cd]pyrazol-6(2H)-one], the zone of inhibition at 3000 µg/mL in test [1] came out at 0 mm; in test [3] it was 0 mm; in test [4], 14 mm; in test [5], 0 mm. Further, the zone of inhibition at 1000 µg/mL in test [2] is 15 mm.
Regarding `NCCNc1ccc2c3c(nn2CCN)-c2c(O)ccc(O)c2C(=O)c13` [Example 72, 2-(2-Aminoethyl)-5-[(2-aminoethyl)amino]-7,10-dihydroxyanthra[1,9-cd]pyrazol-6(2H)-one], the zone of inhibition at 3000 µg/mL came out at 14 mm in test [1]; 0 mm in test [2]; 0 mm in test [3]; 0 mm in test [4]; 0 mm in test [5].
On to `COCCn1nc2c3c(c(NCCN)ccc31)C(=O)c1c(O)ccc(O)c1-2` [Example 77, 5-[(2-Aminoethyl)amino]-7,10-dihydroxy-2-(2-methoxyethyl)anthra(1,9-cd]pyrazol-6(2H)-one], for which the zone of inhibition at 3000 µg/mL in test [1] came out at 14 mm; in test [2] it was 16 mm; in test [3], 0 mm; in test [4] it was 16 mm; in test [5], 0 mm.
In the case of `O=C1c2c(NCCNCCO)cccc2-c2nn(CCNCCO)c3cccc1c23` [Example 81, 2-[2-[(2-Hydroxyethyl)amino]lethyl]-7-[[2-[(2-hydroxyethyl)amino]ethyl]amino]anthra[1,9-cd]pyrazol-6(2H)-one], the zone of inhibition at 500 µg/mL in test [1] is 17 mm; in test [2] (Dose 0.5 mg/ml), 16 mm. Besides, the zone of inhibition at 3000 µg/mL in test [3] and in test [5] was 0 mm each time. Besides, in test [4] (Dose 1.0 mg/ml), the zone of inhibition at 1000 µg/mL came out at 20 mm.
For the compound `CCN(CC)CCn1nc2c3c(c(Cl)ccc31)C(=O)c1ccccc1-2` [H; Cl*; (CH2)2NEt2, 5-Chloro-2-[2-(diethylamino)ethyl]anthra[1,9-cd]pyrazol-6(2H)-one], the values for the zone of inhibition at 500 µg/mL in test [1], in test [4] and in test [5] (Dose 0.5 mg/ml) were 14 mm, 14 mm and 16 mm, respectively. Moreover, the zone of inhibition at 100 µg/mL in test [2] (Dose 0.1 mg/ml) came to 16 mm. For the same compound, the zone of inhibition at 1000 µg/mL in test [3] amounted to 16 mm.
Take `NCCn1nc2c3c(c(Cl)ccc31)C(=O)c1ccccc1-2` [H; Cl*; (CH2)2NH2, 2-(2-Aminoethyl)-5-chloroanthra[1,9-cd]pyrazol-6(2H)-one]: the zone of inhibition at 100 µg/mL in test [1] (Dose 0.1 mg/ml) came out at 25 mm; in test [4] (Dose 0.1 mg/ml), 16 mm. In addition, the zone of inhibition at 3000 µg/mL in test [2] is 14 mm; in test [3], 0 mm; in test [5] it was 16 mm.
For the compound `CCN(CC)CC(O)Cn1nc2c3c(c(Cl)ccc31)C(=O)c1ccccc1-2` (centres unmarked) [H; Cl*; CH2CHOHCH2NEt2], the zone of inhibition at 3000 µg/mL in test [1] turned out to be 17 mm. For the same compound, the results for the zone of inhibition at 1000 µg/mL in test [2], in test [3] and in test [5] (Dose 1.0 mg/ml) were 14 mm, 15 mm and 16 mm, respectively. In addition, the zone of inhibition at 500 µg/mL in test [4] came out at 14 mm.
